Values after ≈ are worked out from the molar mass of the structure shown. Where only a bound is given, the exact number is not on record here.

Results on 19 compounds are retold here after ChEMBL document CHEMBL5096199, “Structure-Based Optimization of Small Molecule Human Galactokinase Inhibitors” (J Med Chem, 2021).

One series addresses Galactokinase (Homo sapiens, UniProt P51570). Description: Inhibition of recombinant human GALK1 using galactose as substrate incubated for 1 hrs in the presence of ATP by Kinase-Glo reagent based luminescence assay.
Series [1] is described as follows: Metabolic stability in human liver microsomes assessed as half life. Format: ADME, Microsome. (Liver microsomes are vesicles of endoplasmic reticulum, rich in cytochrome P450 enzymes.)
A short description of a further series: physchem. Conditions: phosphate buffer, pH 7.4.
Series [2] is described as follows: Permeability of the compound at pH 7.4 measured after 30 mins by PAMPA based LC/MS analysis. Format: ADME. Conditions: for Papp at 0.5 h: PAMPA, pH 7.4, read-out: permeability. In general terms: PAMPA measures passive passage across an artificial lipid membrane.
Series [3] in a line: Metabolic stability in mouse liver microsome assessed as half life. Format: ADME. Conditions: microsomes.

Sequence of Galactokinase (P51570 whole entry): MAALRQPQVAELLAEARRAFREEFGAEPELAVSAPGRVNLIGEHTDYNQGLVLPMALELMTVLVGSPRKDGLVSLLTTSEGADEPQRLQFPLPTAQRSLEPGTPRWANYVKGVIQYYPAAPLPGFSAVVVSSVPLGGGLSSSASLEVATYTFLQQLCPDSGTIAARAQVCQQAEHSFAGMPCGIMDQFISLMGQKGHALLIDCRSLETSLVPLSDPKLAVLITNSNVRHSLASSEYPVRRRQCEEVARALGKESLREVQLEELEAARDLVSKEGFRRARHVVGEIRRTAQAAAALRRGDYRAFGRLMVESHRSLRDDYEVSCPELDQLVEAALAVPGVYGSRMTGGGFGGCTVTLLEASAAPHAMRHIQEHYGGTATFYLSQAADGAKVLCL
Description for physchem: Kinetic solubility of the compound in phosphate buffer at pH 7.4 at 150 uM incubated for 6 hrs by shake-flask method

In the case of `CC1=C(C(=O)Nc2cc(C(=O)O)ccn2)C(c2ccccc2Cl)N=C(Nc2nc3c(C)cccc3o2)N1` (centres undefined), on Galactokinase (read-out: pIC50 (converted)), the IC50 is 9330 nM. As to `CCn1cc(CNC(=O)C2=C(C)NC(Nc3nc4cccc(N)c4o3)=NC2c2ccc(C)cc2Cl)cn1` (racemic), the t1/2 in series [1] turned out to be 120 min. In “physchem”, the kinetic solubility at 6 h, 150 µM is 2.4 µg/mL (≈ 4.62 µM). Further, the Papp at 0.5 h in series [2] is 632 ×10⁻⁶ cm/s.

Turning to `CC1=C(C(=O)Nc2cc(C(=O)O)ccn2)C(c2ccc(N3CCOCC3)cc2Cl)N=C(Nc2nc3ccc(F)cc3o2)N1` (centres undefined), the IC50 at Galactokinase (read-out: pIC50 (converted)) was 447 nM. With `CCn1cc(CNC(=O)C2=C(C)NC(Nc3nc4ccc(F)c(N)c4o3)=N[C@H]2c2ccc(C)cc2Cl)cn1`, the t1/2 came out at 12 min in series [1] and 7 min in series [3]. Further, the kinetic solubility at 6 h, 150 µM in “physchem” was less than 1 µg/mL. In series [2], the Papp at 0.5 h was 773 ×10⁻⁶ cm/s. In addition, the IC50 at Galactokinase (read-out: IC50) came out at 68 nM. For the compound `CC1=C(C(=O)NCc2cnn(C)c2)C(c2ccccc2Cl)N=C(Nc2nc3ccccc3o2)N1` (centres undefined), the IC50 on Galactokinase (read-out: pIC50 (converted)) was 1410 nM. On the same count and under the same terms, next, `CC1=C(C(=O)Nc2cccc(F)c2)C(c2ccccc2Cl)N=C(Nc2nc3ccccc3o2)N1` (centres undefined): 6610 nM; `CC1=C(C(=O)NCc2cn(C)cn2)C(c2ccccc2Cl)N=C(Nc2nc3ccccc3o2)N1` (centres undefined): 1050 nM.

As for `CC1=C(C(=O)Nc2nnc(C)s2)C(c2ccccc2Cl)N=C(Nc2nc3ccccc3o2)N1` (centres undefined), the IC50 on Galactokinase (read-out: pIC50 (converted)) was 5250 nM.

As for `CC1=C(C(=O)NCc2ccc(C(=O)O)cc2)C(c2ccccc2Cl)N=C(Nc2nc3ccccc3o2)N1` (centres undefined), the IC50 on Galactokinase (read-out: pIC50 (converted)) is 3720 nM. In the case of `COc1ccc(C2N=C(Nc3nc4ccc(F)cc4o3)NC(C)=C2C(=O)Nc2cc(C(=O)O)ccn2)c(Cl)c1` (centres undefined), the IC50 on Galactokinase (read-out: pIC50 (converted)) was 447 nM. Turning to `CC1=C(C(=O)NCc2cnn(C)c2)C(c2ccc(C)cc2Cl)N=C(Nc2nc3cccc(N)c3o2)N1` (racemic), the t1/2 is given as 32 min in series [1] and 11 min in series [3]. Further, the kinetic solubility at 6 h, 150 µM in “physchem” is 8.3 µg/mL (≈ 16.4 µM). For the same compound, the permeability in series [2] (pampa, pH 7.4, 0.5 h) is reported as 315 10^-6 cm/s. Further, at Galactokinase (read-out: pIC50 (converted)), the IC50 was 209 nM. Regarding `CC1=C(C(=O)NCc2ccc(CO)cc2)C(c2ccccc2Cl)N=C(Nc2nc3ccccc3o2)N1` (centres undefined), at Galactokinase (read-out: pIC50 (converted)), the IC50 was 6610 nM.

For the compound `CC1=C(C(=O)Nc2cc(C(=O)O)ccn2)C(c2ccccc2Br)N=C(Nc2nc3ccc(F)cc3o2)N1` (centres undefined), the IC50 on Galactokinase (read-out: pIC50 (converted)) is 562 nM. On to `CC1=C(C(=O)Nc2ccc(O)cc2)C(c2ccccc2Cl)N=C(Nc2nc3ccccc3o2)N1` (centres undefined), for which the IC50 on Galactokinase (read-out: pIC50 (converted)) was 3720 nM. `CC1=C(C(=O)Nc2cccc(CO)c2)C(c2ccccc2Cl)N=C(Nc2nc3ccccc3o2)N1` (centres undefined): on Galactokinase (read-out: pIC50 (converted)), the IC50 was 4170 nM.

Consider `CC1=C(C(=O)Nc2cc(C(=O)O)ccn2)C(c2ccccc2Cl)N=C(Nc2nc3cc(N)ccc3o2)N1` (centres undefined), for which, on Galactokinase (read-out: pIC50 (converted)), the IC50 was 7410 nM. Still for that read-out and setting: next, `CC1=C(C(=O)Nc2cc(C(=O)O)ccn2)C(c2ccc(F)cc2Cl)N=C(Nc2nc3ccc(F)cc3o2)N1` (centres undefined): 891 nM. Turning to `CC1=C(C(=O)NCc2cccc(CO)c2)C(c2ccccc2Cl)N=C(Nc2nc3ccccc3o2)N1` (centres undefined), the IC50 at Galactokinase (read-out: pIC50 (converted)) is 4680 nM. As for `CC1=C(C(=O)Nc2cc(C(=O)O)ccn2)C(c2ccccc2Cl)N=C(Nc2nc3cccc(N)c3o2)N1` (centres undefined), the IC50 at Galactokinase (read-out: pIC50 (converted)) was 234 nM.

Usually solubility (kinetic) stands for the concentration staying in solution when a stock, usually in DMSO, is diluted into the medium.
